Laboratory results published in ChEMBL document CHEMBL1135350, “Synthesis of an arabinofuranosyl disaccharide photoaffinity probe for arabinosyltransferase activity in Mycobacterium tuberculosis” (Bioorg Med Chem Lett, 2002).

Tested on: Mycobacterium tuberculosis
Assay: Enzyme kinetic constant of compound for Arabinosyltransferase in Mycobacterium tuberculosis was determined

Question: Which results are given for `[N-]=[N+]=Nc1cccc2c(S(=O)(=O)NCCOC3O[C@H](COC4O[C@H](CO)[C@@H](O)[C@H]4O)[C@@H](O)[C@H]3O)cccc12` (some centres not stated)?
Answer: Km: 3.07 mM; Vmax (pM min-1 mg-1): 4.26
